Data reported in patent US11433053B2, “LSD1 inhibitor and preparation method and application thereof” (CSPC ZHONGQI PHARMACEUTICAL TECHNOLOGY (SHIJIAZHUANG) CO., …, priority 2017, dated 2022).

Tested on: H1417 cells
Assay: Cell proliferation inhibitory activity on H1417 cells (CellTiter-Glo, 10 days)
Type: cell-based, human
Conditions: Homo sapiens; for IC50: NCI-H1417, 240 h, H1417 cells, 10 days incubation; for Emax: NCI-H1417, H1417 cells, highest percentage inhibition of cell viability, read-out: Maximum inhibition percentage (%)
Procedure: Experimental purposes: To test the proliferation inhibitory activities of the test compounds on H1417 cells.
Experimental materials: RPMI 1640 medium, fetal bovine serum, Promega CellTiter-Glo reagent. The H1417 cell line purchased from ATCC. Envision Multi-Label Analyzer (PerkinElmer).
Experimental method: H1417 cells were seeded in a black 384-well plate, 1000 cells per well in […] of cell suspension. The test compounds were diluted 3-fold with Epmotion to the 10th concentration i.e, the compounds were diluted from 10 mmol to […], and a double duplicate well experiment was set. 198 μL medium was added to the middle plate, according to the corresponding position, 2 μL gradient diluted compounds were added to the middle plate. The mixture was mixed evenly and transferred 20 μL per well to the cell plates. The cell plates were incubated in a carbon dioxide incubator for 10 days. 25 μL of Promega CellTiter-Glo reagent per well was added to the cell plate and the mixture was incubated for 10 minutes at room temperature to stabilize the luminescence signal. Readings were performed by PerkinElmer Envision multi-label analyzer.
Data analysis: The original data was converted to the inhibition rate by the equation (Max-Ratio)/(Max-Min)*100%, and the value of IC50 can be obtained by curve fitting with four parameters. (Model 205 in XLFIT5, iDBS)
The growth inhibitory activities of the test compounds on H1417 cells were classified as + for IC50≤100 nM; ++ for IC50>100 nM and ≤500 nM; +++ for IC50>500 nM and ≤1000 nM; the highest percentage inhibition of cell viability was classified as: […]; 90%>B≥70%; 70%>C≥50%.

SMILES | IC50 | Emax
FC(F)(F)C1CCN(CC2(CN[C@H]3CC3c3ccccc3)CC2)CC1 (stereo partly drawn) [Example 80] | 100 to 500 nM | 50 to 70%
CC1CCN(CC2(CN[C@H]3CC3c3ccccc3)CC2)C1 (stereo partly drawn) [Example 98] | 100 to 500 nM | 50 to 70%
CN1CCC(c2nc(C3(CN[C@H]4CC4c4ccccc4)CC3)no2)CC1=O (stereo partly drawn) [Example 218] | 100 to 500 nM | 70 to 90%
O=C(O)c1ccc2c(c1)CCN(CC1(CN[C@H]3CC3c3ccccc3)CC1)C2 (stereo partly drawn) [Example 101] | 500 to 1000 nM | 50 to 70%
c1ccc(C2C[C@@H]2NCC2(CN3CCc4ccncc4C3)CC2)cc1 (stereo partly drawn) [Example 49] | 500 to 1000 nM | 90 to 100%
O=C(O)c1ccc2c(c1)CN(CC1(CN[C@H]3CC3c3ccccc3)CC1)CC2 (stereo partly drawn) [Example 53] | 500 to 1000 nM | 90 to 100%
Clc1ccc2oc(C3(CN[C@H]4CC4c4ccccc4)CC3)nc2c1 (stereo partly drawn) [Example 47] | 100 to 500 nM | 50 to 70%
CC(=O)N1CCC(c2nc(C3(CN[C@H]4CC4c4ccccc4)CC3)no2)CC1 (stereo partly drawn) [Example 105] | 100 to 500 nM | 70 to 90%
CN(C)[C@H]1CC[C@H](c2nc(C3(CN[C@H]4CC4c4ccccc4)CC3)no2)CC1 (stereo partly drawn) [Example 108] | 500 to 1000 nM | 70 to 90%
O=C(O)c1ccc(N2CCC(c3nc(C4(CN[C@H]5CC5c5ccccc5)CC4)no3)CC2)cc1 (stereo partly drawn) [Example 103] | 500 to 1000 nM | 50 to 70%
FC(F)(F)c1ccc2c(c1)CN(CC1(CN[C@H]3CC3c3ccccc3)CC1)C2 (stereo partly drawn) [Example 55] | 100 to 500 nM | 70 to 90%
FC(F)(F)c1ccc2c(c1)CN(CC1(CN[C@H]3CC3c3ccccc3)CC1)CC2 (stereo partly drawn) [Example 51] | 100 to 500 nM | 70 to 90%
N#CC1CCN(CC2(CN[C@H]3CC3c3ccccc3)CC2)CC1 (stereo partly drawn) [Example 81] | ≤ 100 nM | 50 to 70%
c1ccc(C2C[C@@H]2NCC2(CN3CCc4ccccc4CC3)CC2)cc1 (stereo partly drawn) [Example 58] | 100 to 500 nM | 70 to 90%
O=C(O)C1CCC(c2nc(C3(CN[C@H]4CC4c4ccccc4)CC3)no2)CC1 (stereo partly drawn) [Example 67] | 100 to 500 nM | 50 to 70%
CS(=O)(=O)n1cc2c(n1)CN(CC1(CN[C@H]3CC3c3ccccc3)CC1)C2 (stereo partly drawn) [Example 106] | 500 to 1000 nM | 50 to 70%
C[C@H]1CCCN1CC1(CN[C@H]2CC2c2ccccc2)CC1 (stereo partly drawn) [Example 212] | 100 to 500 nM | 50 to 70%
c1ccc(C2C[C@@H]2NCC2(CN3CCCCc4ccccc43)CC2)cc1 (stereo partly drawn) [Example 60] | 500 to 1000 nM | 50 to 70%
c1ccc(C2C[C@@H]2NCC2(CN3Cc4ccncc4C3)CC2)cc1 (stereo partly drawn) [Example 61] | 500 to 1000 nM | 50 to 70%
c1ccc(C2C[C@@H]2NCC2(CN3CCC3)CC2)cc1 (stereo partly drawn) [Example 211] | 100 to 500 nM | 50 to 70%
Clc1ccc(-n2cc(C3(CN[C@H]4CC4c4ccccc4)CC3)nn2)cc1 (stereo partly drawn) [Example 96] | 500 to 1000 nM | 50 to 70%
O=C(O)c1ccc(CN2CCC(c3nc(C4(CN[C@H]5CC5c5ccccc5)CC4)no3)CC2)cc1 (stereo partly drawn) [Example 82] | 100 to 500 nM | 50 to 70%
O=C(O)C1CCN(CC2(CN[C@H]3CC3c3ccccc3)CC2)CC1 (stereo partly drawn) [Example 54] | 500 to 1000 nM | 50 to 70%
c1ccc(C2C[C@@H]2NCC2(CN3CCCC3)CC2)cc1 (stereo partly drawn) [Example 77] | ≤ 100 nM | 70 to 90%
c1ccc(C2C[C@@H]2NCC2(c3nc4ccccc4o3)CC2)cc1 (stereo partly drawn) [Example 76] | 100 to 500 nM | 50 to 70%
CC1(C)CCN(CC2(CN[C@H]3CC3c3ccccc3)CC2)C1 (stereo partly drawn) [Example 202] | 100 to 500 nM | 70 to 90%
O=C(O)c1ccc(C2CCN(CC3(CN[C@H]4CC4c4ccccc4)CC3)CC2)cc1 (stereo partly drawn) [Example 56] | 500 to 1000 nM | 50 to 70%
